Legend:
YlTrm9N19-Trm112 = YlTrm9N19-Trm112 (Yarrowia lipolytica, UniProt Q6C999)
YlTrm9N38-Trm112 = YlTrm9N38-Trm112 (Yarrowia lipolytica, UniProt Q6C999)
[1] = target: YlTrm9-Trm112 (full-length) (Yarrowia lipolytica, UniProt Q6C999)
YlTrm9-Trm112 (full-length), sequence (Q6C999 1-234): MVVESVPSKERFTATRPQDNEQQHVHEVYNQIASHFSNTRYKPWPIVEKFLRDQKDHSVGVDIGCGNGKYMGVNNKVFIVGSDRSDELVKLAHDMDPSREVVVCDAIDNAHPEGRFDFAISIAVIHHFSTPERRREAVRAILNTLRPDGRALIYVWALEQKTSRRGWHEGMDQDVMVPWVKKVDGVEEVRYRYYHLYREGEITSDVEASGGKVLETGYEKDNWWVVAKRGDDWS
YlTrm9-Trm112 (full-length), sequence (Q6C4P5 1-130 partner): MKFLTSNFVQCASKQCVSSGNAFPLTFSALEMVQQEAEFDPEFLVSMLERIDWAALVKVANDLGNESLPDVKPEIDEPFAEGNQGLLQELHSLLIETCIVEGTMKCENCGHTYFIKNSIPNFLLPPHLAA

YlTrm9N19-Trm112, sequence (Q6C999 19-234): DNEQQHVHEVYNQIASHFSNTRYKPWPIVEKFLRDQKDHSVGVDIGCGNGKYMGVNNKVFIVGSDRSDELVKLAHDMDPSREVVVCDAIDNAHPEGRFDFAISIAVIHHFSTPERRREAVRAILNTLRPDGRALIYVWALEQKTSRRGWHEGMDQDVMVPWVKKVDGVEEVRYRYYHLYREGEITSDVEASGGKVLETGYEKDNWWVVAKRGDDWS
YlTrm9N19-Trm112, sequence (Q6C4P5 1-130 partner): as the sequence (Q6C4P5 1-130 partner) above
YlTrm9N38-Trm112, sequence (Q6C999 38-234): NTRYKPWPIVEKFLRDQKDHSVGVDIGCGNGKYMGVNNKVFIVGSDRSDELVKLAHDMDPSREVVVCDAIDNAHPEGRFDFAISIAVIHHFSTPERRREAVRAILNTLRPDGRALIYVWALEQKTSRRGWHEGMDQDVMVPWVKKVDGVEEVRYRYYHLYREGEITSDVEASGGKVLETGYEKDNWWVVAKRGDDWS
YlTrm9N38-Trm112, sequence (Q6C4P5 1-130 partner): as the sequence (Q6C4P5 1-130 partner) above

- affinity for SAM (YlTrm9N38-Trm112): displayed the same affinity for SAM
- affinity for SAM [1]: displayed the same affinity for SAM
Compound: C[S+](CC[C@H](N)C(=O)O)C[C@H]1O[C@@H](n2cnc3c(N)ncnc32)[C@H](O)[C@@H]1O (stereo partly drawn) [SAM]
- affinity for SAM (YlTrm9N19-Trm112): both truncated forms were strongly affected in their enzymatic activity
